Each block holds one molecule with its values, some of them ahead of it. Residues, ends and D or L forms follow the SMILES beside them. No end group written: not given here. *: point of attachment. 5FAM = O=C1OC2(c3ccc(O)cc3Oc3cc(O)ccc32)c2ccc(C(=O)*)cc21; Cbz = O=C(OCc1ccccc1)*; CH2F = FC*
Key:
BCR-ABL protein = target: T1, BCR-ABL protein (Homo sapiens, UniProt P00519+P11274); assay: Protein knockdown by western blot in K562 cells; assay type: cell-based; details: 6 h, 1-300 nM
T1 construct: examined for their activity to degrade BCR-ABL in K562 cells for 6 h; BCR (fusion partner, P11274, N-terminal part); endogenous in cells; host or cells: K562
T1 sequence (P11274+P00519 fused): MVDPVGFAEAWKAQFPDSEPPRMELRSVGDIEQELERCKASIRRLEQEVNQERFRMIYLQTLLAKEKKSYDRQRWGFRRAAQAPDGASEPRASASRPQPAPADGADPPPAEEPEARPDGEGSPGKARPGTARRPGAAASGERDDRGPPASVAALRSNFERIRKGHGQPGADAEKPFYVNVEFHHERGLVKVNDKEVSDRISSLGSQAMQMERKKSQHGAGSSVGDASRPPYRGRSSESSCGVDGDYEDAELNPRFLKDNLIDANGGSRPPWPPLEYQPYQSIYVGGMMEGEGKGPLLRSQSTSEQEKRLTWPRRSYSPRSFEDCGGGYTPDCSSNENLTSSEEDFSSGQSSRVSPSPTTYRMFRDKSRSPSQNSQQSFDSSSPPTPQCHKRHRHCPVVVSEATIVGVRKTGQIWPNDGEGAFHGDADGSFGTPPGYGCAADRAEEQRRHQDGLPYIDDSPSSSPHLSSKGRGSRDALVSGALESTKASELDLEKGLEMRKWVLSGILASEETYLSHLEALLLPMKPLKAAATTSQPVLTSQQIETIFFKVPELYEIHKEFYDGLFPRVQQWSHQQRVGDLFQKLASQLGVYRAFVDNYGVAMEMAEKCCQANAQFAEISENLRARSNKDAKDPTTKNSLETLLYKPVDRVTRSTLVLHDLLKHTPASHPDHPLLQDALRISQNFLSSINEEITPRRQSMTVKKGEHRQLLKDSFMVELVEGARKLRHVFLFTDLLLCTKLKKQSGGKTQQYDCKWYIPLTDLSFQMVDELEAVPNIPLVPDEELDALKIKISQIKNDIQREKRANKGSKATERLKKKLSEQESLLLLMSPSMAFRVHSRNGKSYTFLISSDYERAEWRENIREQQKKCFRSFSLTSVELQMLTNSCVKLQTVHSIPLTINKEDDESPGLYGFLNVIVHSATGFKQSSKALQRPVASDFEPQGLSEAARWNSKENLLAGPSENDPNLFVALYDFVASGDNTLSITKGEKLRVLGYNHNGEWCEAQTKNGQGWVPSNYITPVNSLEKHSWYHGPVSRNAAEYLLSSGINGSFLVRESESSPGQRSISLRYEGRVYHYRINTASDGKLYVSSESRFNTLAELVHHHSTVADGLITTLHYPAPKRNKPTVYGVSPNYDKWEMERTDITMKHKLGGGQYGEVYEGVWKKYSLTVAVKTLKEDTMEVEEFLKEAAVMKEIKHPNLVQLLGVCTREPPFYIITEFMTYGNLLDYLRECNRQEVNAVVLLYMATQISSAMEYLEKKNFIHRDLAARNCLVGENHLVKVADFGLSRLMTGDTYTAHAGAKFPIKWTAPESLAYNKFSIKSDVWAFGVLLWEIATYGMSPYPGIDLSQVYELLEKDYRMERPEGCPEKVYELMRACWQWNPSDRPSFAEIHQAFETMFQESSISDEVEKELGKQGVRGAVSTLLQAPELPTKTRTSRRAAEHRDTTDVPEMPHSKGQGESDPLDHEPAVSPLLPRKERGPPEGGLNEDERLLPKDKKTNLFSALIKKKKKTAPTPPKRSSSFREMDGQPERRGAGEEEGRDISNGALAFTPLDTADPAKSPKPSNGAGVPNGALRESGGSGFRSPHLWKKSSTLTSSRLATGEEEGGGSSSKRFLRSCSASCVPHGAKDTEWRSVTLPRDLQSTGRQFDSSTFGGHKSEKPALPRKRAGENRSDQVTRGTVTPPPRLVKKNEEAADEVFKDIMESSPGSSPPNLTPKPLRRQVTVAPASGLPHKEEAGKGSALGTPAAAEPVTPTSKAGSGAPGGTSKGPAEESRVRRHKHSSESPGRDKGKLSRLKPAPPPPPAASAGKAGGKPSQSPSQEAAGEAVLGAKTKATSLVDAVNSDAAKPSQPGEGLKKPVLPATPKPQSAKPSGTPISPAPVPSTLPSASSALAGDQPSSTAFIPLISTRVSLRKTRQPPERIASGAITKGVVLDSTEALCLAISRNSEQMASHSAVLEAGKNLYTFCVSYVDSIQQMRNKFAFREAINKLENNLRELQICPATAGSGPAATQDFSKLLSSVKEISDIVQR
Description: (§1) Cells were collected and lysed in a lysis buffer (0.5% Triton X-100, 0.01 M Tris-HCl (pH 7.5), 0.15 M NaCl, Complete Mini protease inhibitor cocktail (Roche Applied Science, Indianapolis, IL, USA) and PhosStop phosphatase inhibitor cocktail (Roche Applied Science)). Protein concentrations were measured by the BCA method (Thermo Fisher Scientific) and an equal amount of protein lysate was separated by SDS-PAGE, transferred to polyvinylidene difluoride membranes (Merck Millipore) and analyzed by western blot using an appropriate antibody. The immunoreactive proteins were visualized using Clarity Western ECL substrate (Bio-Rad, Hercules, CA, USA) and their light emission was quantified with a LAS-3000 lumino-image analyzer (Fuji, Tokyo, Japan).

K562 cells [1] = assay: WST cell growth inhibition, K562; assay type: cell-based, Human; details: 48 h
Description: (§2) Human CML (K562 and KU812 cells), acute T-lymphoblast leukemia (MOLT-4 cell), and T cell leukemia (Jurkat cell) were cultured in Roswell Park Memorial Institute-1640 medium (Sigma-Aldrich, St. Louis, MO, USA) containing 10% fetal bovine serum (Thermo Fisher Scientific, Waltham, MA, USA) and 50 μg/ml kanamycin (Sigma-Aldrich). KU812 cells were obtained from Japanese Collection of Research Bioresources (JCRB, Osaka, Japan) Cell Bank (JCRB0104)[58].
(§3) Cell viability was determined using water-soluble tetrazolium WST-8 (4-[3-(2-methoxy-4-nitrophenyl)-2-(4-nitrophenyl)-2H-5-tetrazolio]-1,3-benzene disulfonate) for the spectrophotometric assay and conducted according to the manufacturer’s instructions (Dojindo, Tokyo, Japan). Cells were seeded at a concentration of 5 × 10^3 cells per well in a 96-well culture plate, and treated with the indicated compounds for 48 h. The WST-8 reagent was added, and the cells were incubated for 0.5 h at 37 °C in a humidified atmosphere of 5% CO2. The absorbance at 450 nm of the medium was measured using the EnVision Multilabel Plate Reader.

KU812 cells = assay: WST cell growth inhibition, KU812; assay type: cell-based; details: Homo sapiens, 48 h, WST assay, means ± SD (n = 3)
Description: as §2, §3

[2] = tested on: phosphorylation of BCR-ABL, STAT5 and CrkL; assay: Downstream kinase signaling (phosphorylation) by western blot in K562 cells; assay type: cell-based, Human
Description: as §1, with “Japan). The following antibodies were used: anti-cAbl rabbit polyclonal antibody (pAb) (#2862), anti-XIAP rabbit pAb (#2042), anti-phospho-cAbl rabbit pAb (#3009), anti-STAT5 rabbit pAb (#9363), anti-phospho-STAT5 rabbit pAb (#9359), anti-CrkL mouse monoclonal antibody (mAb) (#3182) and anti-phospho-CrkL rabbit pAb (#3181), anti-PARP rabbit pAb (#9532), and anti-cleaved Caspase 3 rabbit pAb (#9664) (Cell Signaling Technology, Danvers, MA, USA); anti-β-tubulin (ab6046) rabbit pAb (Abcam, Cambridge, UK) and anti-GAPDH rabbit pAb (sc-25778 HRP) (Santa Cruz, Dallas, TX, USA); anti-cIAP1 goat pAb (AF8181) (R&D systems).” for “Japan).”
(§4) Cells were seeded at a concentration of 2 × 10^6 cells per 10-cm tissue culture dish and treated with the indicated compounds for the indicated times. Then, the cells were washed three times to remove the compounds, and incubated in drug-free medium for the indicated times.

K562 cells [3] = assay: Washout experiment, cell counting of K562 cells; assay type: cell-based, Human; details: 25 or 50 times IC50 for 12 h, washed, drug-free medium for 6 d
Description: as §4

[4] = tested on: caspase 3 activation and PARP cleavage; assay: Caspase activation and PARP cleavage after drug removal in K562 cells; assay type: cell-based, Human
Description: as §1, with “Japan). The following antibodies were used: anti-cAbl rabbit polyclonal antibody (pAb) (#2862), anti-XIAP rabbit pAb (#2042), anti-phospho-cAbl rabbit pAb (#3009), anti-STAT5 rabbit pAb (#9363), anti-phospho-STAT5 rabbit pAb (#9359), anti-CrkL mouse monoclonal antibody (mAb) (#3182) and anti-phospho-CrkL rabbit pAb (#3181), anti-PARP rabbit pAb (#9532), and anti-cleaved Caspase 3 rabbit pAb (#9664) (Cell Signaling Technology, Danvers, MA, USA); anti-β-tubulin (ab6046) rabbit pAb (Abcam, Cambridge, UK) and anti-GAPDH rabbit pAb (sc-25778 HRP) (Santa Cruz, Dallas, TX, USA); anti-cIAP1 goat pAb (AF8181) (R&D systems).” for “Japan).”
as §4

[5] = target: T2, recombinant His-tagged human XIAP (BIR3, Asn252-Thr356) (human, UniProt P98170 252-356); assay: AlphaScreen or HTRF; TR-FRET competition assay: 0.6 nM His-IAP BIR3 held by biotinylated anti-His antibody and terbium-streptavidin, FITC-Smac probe (27 nM for XIAP, 12 nM for cIAP1, 19 nM for cIAP2), small-molecule test compounds as competitors; 50 mM HEPES pH 7.2-7.5, 10 mM MgCl2, 1 mM EGTA, 0.1 mM DTT, 0.01% Brij 35; room temperature; details: both partners purified
T2 construct: XIAP, human, BIR3 domain, residues Asn252-Thr356; also called His-IAP proteins; source: bought: R&D Systems (895-XB-050)
T2 sequence (P98170 252-356): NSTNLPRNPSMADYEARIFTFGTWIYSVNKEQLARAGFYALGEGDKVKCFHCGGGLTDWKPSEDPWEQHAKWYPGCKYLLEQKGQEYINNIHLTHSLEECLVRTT

[6] = target: T3, recombinant His-tagged human cIAP1 (BIR3, Leu250-Gly350) (human, UniProt Q13490 250-350); assay: as above; details: both partners purified
T3 construct: cIAP1, human, BIR3 domain, residues Leu250-Gly350; also called His-IAP proteins; source: E. coli, purified (Ni-NTA column, gel filtration chromatography)
T3 sequence (Q13490 250-350): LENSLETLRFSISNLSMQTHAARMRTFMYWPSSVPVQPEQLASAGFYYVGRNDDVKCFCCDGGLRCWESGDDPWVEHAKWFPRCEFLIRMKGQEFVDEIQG

[7] = target: T4, recombinant His-tagged human cIAP2 (BIR3, Gln238-Ser349) (human, UniProt Q13489 238-349); assay: as above; details: both partners purified
T4 construct: cIAP2, human, BIR3 domain, residues Gln238-Ser349; also called His-IAP proteins; source: E. coli, purified (Ni-NTA column, gel filtration chromatography)
T4 sequence (Q13489 238-349): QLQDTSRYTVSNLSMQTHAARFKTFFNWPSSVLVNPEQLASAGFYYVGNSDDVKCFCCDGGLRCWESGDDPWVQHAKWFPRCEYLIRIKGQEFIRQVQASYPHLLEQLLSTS

knockdown activity against the BCR-ABL protein (BCR-ABL protein): negligible activity
Molecule: Cc1nc(Nc2ncc(C(=O)Nc3c(C)cccc3Cl)s2)cc(N2CCN(C(=O)COCCOCCOCC(=O)N[C@H](C(=O)N3C[C@H](O)C[C@H]3C(=O)NCc3ccc(-c4scnc4C)cc3)C(C)(C)C)CC2)n1 [DAS-VHL]

Molecule: Cc1nc(Nc2ncc(C(=O)Nc3c(C)cccc3Cl)s2)cc(N2CCN(CCO)CC2)n1 [Dasatinib, dasatinib, reference compound]
times more active than DAS-IAP to inhibit CML cell growth (K562 cells [1]): 100 times | IC50 (K562 cells [1]; Homo sapiens, WST assay, means ± SD (n = 3)): 79.3 ± 3.7 pM | IC50 (KU812 cells): 44.8 ± 0.5 pM | phosphorylation of BCR-ABL, STAT5 and CrkL ([2]; K562, 50 times IC50 for 12 h (time 0)): inhibited | phosphorylation of BCR-ABL, STAT5 and CrkL ([2]; K562 cells, 6 h): suppressed | growth of K562 cells after drug removal (K562 cells [3]): slightly delayed the growth | caspase 3 activation and PARP cleavage ([4]; K562, 50 times IC50 for 12 h, drug removal for 24 h): not

knockdown activity against the BCR-ABL protein (BCR-ABL protein): weak
Molecule: CCN1CCN(Cc2ccc(NC(=O)c3cccc(-c4ccc5nc(NC(=O)COCCOCCOCCOc6cccc(C(=O)c7csc([C@@H]8CCCN8C(=O)[C@@H](NC(=O)[C@H](C)NC)C8CCCCC8)n7)c6)sc5n4)c3)cc2C(F)(F)F)CC1 [HG-IAP]

Molecule: CCN1CCN(Cc2ccc(NC(=O)c3cccc(-c4ccc5nc(NC(=O)COCCOCCOCC(=O)N[C@H](C(=O)N6C[C@H](O)C[C@H]6C(=O)NCc6ccc(-c7scnc7C)cc6)C(C)(C)C)sc5n4)c3)cc2C(F)(F)F)CC1 [HG-VHL]
suppression of K562 cell growth (comparison) (K562 cells [1]; WST assay): more potent suppression of the growth of K562 cells than HG-IAP and HG-CRBN | knockdown activity against the BCR-ABL protein (BCR-ABL protein): effective protein knockdown activity

Molecule: COC(=O)C[C@H](NC(=O)[C@H](C)NC(=O)[C@@H](NC(=O)OCc1ccccc1)C(C)C)C(=O)CF [zVAD-FMK, reference compound] (Cbz-Val-Ala-Asp(OMe)-CH2F)
effect on caspase activation and PARP cleavage by DAS-IAP ([4]; K562, after DAS-IAP pulse and drug removal, 24 h): abrogated

binding result [5]: binds | binding result [6]: binds | binding result [7]: binds
B1: FITC-labeled Smac peptide (FITC-Smac, AVPIAQK(5-FAM)-NH2) (peptide)
peptide: AVPIAQK(5FAM)-NH2
modifications: N-terminus assumed
SMILES: CC[C@H](C)[C@H](NC(=O)[C@@H]1CCCN1C(=O)[C@@H](NC(=O)[C@H](C)N)C(C)C)C(=O)N[C@@H](C)C(=O)N[C@@H](CCC(N)=O)C(=O)N[C@@H](CCCCNC(=O)c1ccc2c(c1)C(=O)OC21c2ccc(O)cc2Oc2cc(O)ccc21)C(N)=O
notes: N-terminal stretch of mature Smac (DIABLO); Fluorescent probe of the TR-FRET assay; source: synthetic peptide (synthesized in Scrum, Tokyo)
